# “Also recorded” adds a separate entry of the source. Like-named read-outs stand apart in the source and are kept apart here.
# Assays:
# [1] = tested on: stony coral Acropora sp. nubbins; test: Quantification of coral bleaching by colorimetric (CMYK) analysis of digital photographs; type: in vivo; conditions: for Number of color channels (of 4, CMYK) significantly altered: after 72 h of incubation; for One-way ANOVA probability level, color component Black (K) / One-way ANOVA probability level, color component Cyan (C) / One-way ANOVA probability level, color component Magenta (M) / One-way ANOVA probability level, color component Yellow (Y): coral color change, start vs after treatment
# Method: (§1) In situ tests were performed on nubbins (i.e., small branches of about 3-6 cm) of the stony coral Acropora sp. The nubbins were incubated in microcosms in presence of known concentrations of various ingredients potentially to be included in the composition of the eco-compatible sunscreen cream. In particular, coral nubbins (including more than 3000 polyps each) were collected by scuba divers from the same colony, located at a depth of about 3 m on the edge of the reef slope. Sampling of nubbins was performed by means of forceps. The nubbins were washed with seawater filtered onto 0.02-μm filters to eliminate viruses and prokaryotes. Each microcosm was prepared with a replicate set of nubbins (n=3) immersed in sterile polyethylene bags (Whirl-pack, Nasco, Fort Atkinson, Wis., USA) filled with 2 L filtered seawater. A total of 27 microcosms were prepared, in order to test 20 ingredients with the respective positive and negative controls. The microcosms were incubated at in situ temperature and light conditions for 72 hours.
# Photographs were taken under identical illumination with a Canon PowerShot A620 digital camera (Canon Inc., Tokyo, Japan) with a scale meter on the background. The photos were successively analyzed with a photo-editing software (Adobe Photoshop CS2) for color composition [cyan, magenta, yellow, black (CMYK)]. Levels of bleaching were measured as the difference between the corals' color at the beginning of the experiment and after treatments. Variations in the percentage of the different color components (CMYK) were analyzed with one-way analysis of variance (ANOVA). To rank the bleaching effect due to the compounds tested, a Bray-Curtis similarity matrix was prepared and a multidimensional scaling analysis of the shifts in CMYK color composition of treated corals was performed using Primer 5.0 software (Primer-E Ltd., Plymouth, UK). Bleaching rates were measured as the dissimilarity percentage in CMYK color composition between treated and control corals using the SIMPER tool of Primer 5.0 software (Primer-E Ltd).
# [2] = tested on: prokaryotes in water surrounding coral nubbins; test: Prokaryotic (bacterial) abundance and enrichment in seawater surrounding coral nubbins (microcosm incubation); conditions: seawater surrounding Acropora sp. nubbins
# Method: as §1
# (§2) After subsampling, sea water was transferred into sterile test tubes without use of fixatives and stored at −20° C. until laboratory analysis for quantification of viral and prokaryotic abundance. Once in laboratory, the water samples were immediately processed. Briefly, 200 uL sea water were diluted 1:10 with prefiltered MilliQ water, through 0.02-μm pore filters (Anodisc filter; 25-mm diameter, Al2O3; Whatman) and stained with 20 μL SYBR Green (stock solution diluted 1:20; Invitrogen, Carlsbad, Calif., USA). […] Slides were stored at −20° C. until microscopy analysis. Virus and prokaryote counts were obtained by epifluorescence microscopy (magnification, ×1000; Zeiss Axioplan) by examining at least 10 optical fields, that is, at least 200 cells or viruses per replicate. Viral (and prokaryotic) enrichment was calculated as ratio between virus (and prokaryote) abundances and virus (and prokaryote) abundance at the […] of the experiment.
# [3] = tested on: symbiotic zooxanthellae released from coral nubbins; test: Zooxanthellae counts: zooxanthellae released in water surrounding coral nubbins; type: in vivo, Acropora sp.; conditions: for Healthy zooxanthellae released / Pale zooxanthellae released / Total zooxanthellae released / Transparent (i.e., dead) zooxanthellae released: end of incubation (72 h); for Percentage of healthy zooxanthellae released / Percentage of pale zooxanthellae released / Percentage of transparent zooxanthellae released: of total released; for Abundance of released zooxanthellae compared with the BLK system: statistical analysis, P<0.01
# Method: as §1
# Subsamples (50 mL) of seawater surrounding coral nubbins were collected at the start of the experiment (T0) and after 6, 12, 24, 36, 48 and 72 hours of incubation. The subsamples were fixed in 3% glutaraldehyde and then about 6.0 ml of each replicate was filtered through 2.0-μm polycarbonate filters. Filters were mounted on glass slides and zooxanthellae counted under epifluorescence microscopy (Zeiss Axioplan, Carl Zeiss Inc., Jena, Germany; ×400 and ×1000) using standard and UV light.
# [4] = tested on: viruses in water surrounding coral nubbins; test: Viral abundance and viral enrichment in seawater surrounding coral nubbins (microcosm incubation); conditions: for Total viral abundances (TVN): seawater surrounding Acropora sp. nubbins, compound concentration per Table 2; for Viral enrichment factor (VEF): ratio of viral abundances, end vs start of incubation
# Method: as §1, §2
# coral reefs = test: Summary of eco-compatibility of tested products with coral reefs; design: species or system Acropora sp.
# Method: In order to select the most eco-compatible products for each group of compounds (i.e., base cream, fragrance, antioxidants and filters) the following criteria were selected:
# 1. coral bleaching level; 2. degree of release of symbiotic zooxanthellae; 3. zooxanthellae health conditions; 4. viral enrichment in the incubation medium with respect to controls.
Compound,"Bacterial abundance (total bacterial number, TBN) ([2]; incubation 0 (start))","Bacterial abundance (total bacterial number, TBN) ([2]; incubation 12 h)",Healthy zooxanthellae released [3] [cells ml^−1],Pale zooxanthellae released [3] [cells ml^−1],Total zooxanthellae released [3] [cells ml^−1],"Transparent (i.e., dead) zooxanthellae released [3] [cells ml^−1]",Percentage of healthy zooxanthellae released ([3]; end of incubation) [%],Percentage of pale zooxanthellae released ([3]; end of incubation) [%],Percentage of transparent zooxanthellae released ([3]; end of incubation) [%],Total viral abundances (TVN) ([4]; incubation 0 (start)) [viruses ml^−1],Total viral abundances (TVN) ([4]; incubation 12 h) [viruses ml^−1],Abundance of released zooxanthellae compared with the BLK system [3],Viral enrichment factor (VEF) [4],other results
"CO[C@@]12[C@H](COC(N)=O)C3=C(C(=O)C(C)=C(N)C3=O)N1C[C@@H]1N[C@@H]12 [MITO, Mitomycin C, reference compound]",1.11E+05,1.53E+06,0.00E+00,5.25E+03,2.20E+04,1.68E+04,0,24,76,1.11E+05,1.53E+06,–,–,"Number of color channels (of 4, CMYK) significantly altered [1]: 4; One-way ANOVA probability level, color component Black (K) [1]: ** (** = P < 0.01); One-way ANOVA probability level, color component Cyan (C) [1]: ** (** = P < 0.01); One-way ANOVA probability level, color component Magenta (M) [1]: ** (** = P < 0.01); One-way ANOVA probability level, color component Yellow (Y) [1]: ** (** = P < 0.01)"
"Cc1c(C)c2c(c(C)c1O)CC[C@@](C)(CCC[C@H](C)CCC[C@H](C)CCCC(C)C)O2 [System D16, Alpha-tocopherol]",3.78E+04,–,4.09E+03,1.25E+04,2.67E+04,1.01E+04,15,47,38,3.24E+05,1.46E+06,significantly higher,4.54,"Eco-compatibility (coral reefs; criteria: bleaching level, zooxanthellae release, zooxanthellae health, viral enrichment, listed as Tocopherol): Highly compatible; Eco-compatibility (coral reefs; criteria: bleaching level, zooxanthellae release, zooxanthellae health, viral enrichment, listed as tocopherol): greater eco-compatibility"
C/C=C/C=C/C(=O)O [sorbic acid],–,–,–,–,–,–,–,–,–,–,–,–,–,Harm to the marine environment of coral reefs (coral reefs): did not prove harmful
"CCCCCCOC(=O)c1ccccc1C(=O)c1ccc(N(CC)CC)cc1O [System D25, 2-[4-(diethylamine)-2-hydroxybenzoyl]hexyl benzoate]",3.67E+05,2.63E+06,3.35E+02,8.86E+03,1.64E+04,7.25E+03,2,54,44,3.67E+05,2.63E+06,–,7.44,"Eco-compatibility (coral reefs; criteria: bleaching level, zooxanthellae release, zooxanthellae health, viral enrichment, listed as DHHB): greater eco-compatibility; also recorded: Highly compatible"
"CCCCC(CC)COC(=O)c1ccc(Nc2nc(Nc3ccc(C(=O)OCC(CC)CCCC)cc3)nc(Nc3ccc(C(=O)OCC(CC)CCCC)cc3)n2)cc1 (stereo not shown) [System D24, ethylhexyl triazone]",2.09E+04,7.41E+05,2.68E+02,8.39E+03,1.89E+04,1.02E+04,1,44,54,9.58E+04,1.08E+06,–,12.58,Eco-compatibility (coral reefs): Compatible
"CC(=O)Oc1c(C)c(C)c2c(c1C)CCC(C)(CCC[C@H](C)CCC[C@H](C)CCCC(C)C)O2 (mixture of isomers) [System D17, DL-tocopherol-acetate]",5.80E+04,1.42E+06,1.48E+03,1.88E+04,4.45E+04,2.42E+04,3,42,54,3.49E+05,2.83E+06,significantly higher,8.36,"Eco-compatibility (coral reefs; criteria: bleaching level, zooxanthellae release, zooxanthellae health, viral enrichment, listed as Tocopheryl acetate): Highly compatible; Eco-compatibility (coral reefs; criteria: bleaching level, zooxanthellae release, zooxanthellae health, viral enrichment, listed as tocopheryl acetate): greater eco-compatibility"
2-phospho-ascorbic acid trisodium salt [System D18],3.86E+04,1.39E+06,1.14E+03,1.09E+04,2.11E+04,9.06E+03,5,52,43,3.70E+05,2.51E+06,significantly higher,7.09,"Number of color channels (of 4, CMYK) significantly altered [1]: 4; One-way ANOVA probability level, color component Black (K) [1]: ** (** = P < 0.01); One-way ANOVA probability level, color component Cyan (C) [1]: ** (** = P < 0.01); One-way ANOVA probability level, color component Magenta (M) [1]: ** (** = P < 0.01); One-way ANOVA probability level, color component Yellow (Y) [1]: * (* = P < 0.05); Final abundance of zooxanthellae in water surrounding the coral nubbins ([3]; end of incubation): 4.45 ×10^4 cell ml^−1"

# — patent publication US20140170096A1, “SUNSCREEN COMPOSITIONS” (priority 2011, published 2014)
